Reference: PMC5048153 (Scientific Reports, 2016)
Counter-ions that a name gives are not always drawn.

How the values were obtained:
[1] = tested on: corticosterone-injured PC12 cells; assay: Protective effects on corticosterone-injured PC12 cells (MTT); assay type: cell-based, rat; set-up: key to PR (protection rate), Table S1: compounds did not shown protection effects on corticosterone-injured PC12 cells; settings: 24 h after treatment; for PR (protection rate), Table S1: 1.25µM; for PR (protection rate): 1.25 μM, 200 μM corticosterone
Method: PC12 cells were purchased from American Type Culture Collection and were maintained in DMEM medium supplemented with penicillin (100 unit/ml), streptomycin (100 μg/ml), 5% fetal bovine serum (FBS), and 10% horse serum at 37 °C in humidified atmosphere with 5% CO2. The detailed procedures were performed referring to the reported literatures. Briefly, PC12 cells of logarithmic growth phase were collected, re-suspended and then seeded at a density of 1 × 10^5 cells per well in 96-well plates and cultured in the DMEM medium with 5% horse serum, 10% FBSfor 24 h.
After incubation with compounds, 20 μl of 5 mg/ml MTT solution was added to each well and cultured at 37 °C for 2 h–4 h. Then, the culture medium was removed, and 150 μl dimethyl sulfoxide(DMSO) was added to each well for 15 min at room temperature. The absorbance of each well was measured at 570 nm using a microplate reader. The protective rates (PR) were calculated according to equation (1).

HEK293 cells = assay: Cytotoxicity on HEK293 cells (MTT); assay type: cell-based, human; settings: after treatment; for inhibition at 100 µM: Homo sapiens, HEK293, 100μM, read-out: IR (inhibitory rate) HEK293; for IR (inhibitory rate) HEK293: 100μM
Method: (§1) Human normal hepatic L02 cells, human embryonic kidney cell line 293 cells (HEK293) and Rattus myoblast cell line H9C2 cells were respectively seeded in 96-well plates at a density of 4 × 10^3 cells per well and cultured in the 1640 or DMEM medium, with the supplement of 10% fetal bovine serum, penicillin (100 unit/ml), streptomycin (100 μg/ml) in a humidified incubator with 5% CO2 for 24 h. […] The cytotoxicities of the compounds were evaluated by MTT method.

L02 cells = assay: Cytotoxicity on L02 cells (MTT); assay type: cell-based, human; settings: after treatment; for inhibition at 100 µM: Homo sapiens, L02, 100μM, read-out: IR (inhibitory rate) L02; for IR (inhibitory rate) L02: 100μM
Method: as §1

| Molecule | PR (protection rate), Table S1 [1] | inhibition at 100 µM (HEK293 cells) [%] | inhibition at 100 µM (L02 cells) [%] | IR (inhibitory rate) HEK293 (HEK293 cells) [%] | IR (inhibitory rate) L02 (L02 cells) [%] | PR (protection rate) [1] |
| --- | --- | --- | --- | --- | --- | --- |
| COc1ccc2c(c1)C(CCNC(=O)c1ccc(C#N)cc1)=NCC2.O=C(O)C(=O)O [6a-19, 4-Cyano-N-(2-(7-methoxy-3,4-dihydroisoquinolin-1-yl)ethyl)benzamide oxalate] | - | 55.9 | 45 |  |  |  |
| 2,6-Difluoro-N-(2-(7-methoxy-3,4-dihydroisoquinolin-1-yl)ethyl)benzamide oxalate [6a-34] | - |  |  | 47.1 | 44.0 |  |
| COc1ccc2c(c1)C(CCNC(=O)Nc1ccc(Cl)cc1[N+](=O)[O-])=NCC2 [6b-16, 1-(4-Chloro-2-nitrophenyl)-3-(2-(7-methoxy-3,4-dihydroisoquinolin-1-yl)ethyl)urea oxalate] |  | 52 | 53.2 |  |  |  |
| 2-(3-(2-(7-Methoxy-3,4-dihydroisoquinolin-1-yl)ethyl)ureido)thiazole-5-carboxylate oxalate [6b-8] | - |  |  | 49.2 | 50.0 |  |
| COc1ccc2c(c1)C(CCNC(=O)C1CC1)=NCC2 [6a-4, N-(2-(7-Methoxy-3,4-dihydroisoquinolin-1-yl)ethyl) cyclopropanecarboxamideoxalate] | - | 46.2 | < 0 |  |  |  |
| COc1ccc2c(c1)C(CCNC(=O)c1ccc(C(C)C)cc1)=NCC2 [6a-13, 4-Isopropyl-N-(2-(7-methoxy-3,4-dihydroisoquinolin-1-yl)ethyl) benzamide oxalate] | - | 57.6 | 43 |  |  |  |
| COc1ccc2c(c1)C(CCNC(=O)c1ccc3ccccc3n1)=NCC2.O=C(O)C(=O)O [6a-26, N-(2-(7-Methoxy-3,4-dihydroisoquinolin-1-yl)ethyl)quinoline-2-carboxamide oxalate] | - | 48.6 | 42.7 |  |  |  |
| COc1ccc2c(c1)C(CCNC(=O)Nc1ccccc1[N+](=O)[O-])=NCC2 [6b-19, 1-(2-(7-Methoxy-3,4-dihydroisoquinolin-1-yl)ethyl)-3-(2-nitrophenyl)ureaoxalate] | - | 33.5 | 31.5 |  |  |  |
| COc1ccc2c(c1)C(CCNC(=O)Nc1ccc(F)c(Cl)c1)=NCC2.O=C(O)C(=O)O [6b-14, 1-(3-Chloro-4-fluorophenyl)-3-(2-(7-methoxy-3,4-dihydroisoquinolin-1-yl)ethyl)urea oxalate] | - | 22.8 | 47.7 |  |  |  |
| COc1ccc2c(c1)C(CCNC(=O)c1cc(C(F)(F)F)ccc1Br)=NCC2.O=C(O)C(=O)O [6a-28, 2-Bromo-N-(2-(7-methoxy-3,4-dihydroisoquinolin-1-yl)ethyl)-5-(trifluoromethyl)benzamide oxalate] | 2.4% | 58.5 | 43.7 |  |  |  |
| COc1ccc2c(c1)C(CCNC(=O)c1ccc(C(C)=O)cc1)=NCC2 [6a-16, 4-Acetyl-N-(2-(7-methoxy-3,4-dihydroisoquinolin-1-yl)ethyl) benzamideoxalate] | 6.1% | < 20 | < 20 |  |  |  |
| COc1ccc(C(=O)NCCC2=NCCc3ccc(OC)cc32)cc1 [6a-6, 4-Methoxy-N-(2-(7-methoxy-3,4-dihydroisoquinolin-1-yl)ethyl) benzamideoxalate] | - | 34.1 | 24.9 |  |  |  |
| COc1ccc2c(c1)C(CCNC(=O)Nc1cccc3ccccc13)=NCC2.O=C(O)C(=O)O [6b-13, 1-(2-(7-Methoxy-3,4-dihydroisoquinolin-1-yl)ethyl)-3-(naphthalen-1-yl)urea oxalate] | - | < 20 | < 20 |  |  |  |
| COc1ccc2c(c1)C(CCNC(=O)c1ccccc1)=NCC2.O=C(O)C(=O)O [6a-10, N-(2-(7-Methoxy-3,4-dihydroisoquinolin-1-yl)ethyl)benzamide oxalate] | - | 27.6 | 22.5 |  |  |  |
| COc1ccc2c(c1)C(CCNC(=O)c1cncc(Br)c1)=NCC2.O=C(O)C(=O)O [6a-29, 5-Bromo-N-(2-(7-methoxy-3,4-dihydroisoquinolin-1-yl)ethyl)nicotinamide oxalate] | - | 29.5 | 14.4 |  |  |  |
| COc1ccc2c(c1)C(CCNC(=O)Nc1nccs1)=NCC2.O=C(O)C(=O)O [6b-17, 1-(2-(7-Methoxy-3,4-dihydroisoquinolin-1-yl)ethyl)-3-(thiazol-2-yl)urea oxalate] | 13.9% | 21.9 | 20.1 |  |  | above 10% |
| COc1ccc2c(c1)C(CCNC(=O)Nc1ncccc1Br)=NCC2.O=C(O)C(=O)O [6b-22, 1-(3-Bromopyridin-2-yl)-3-(2-(7-methoxy-3,4-dihydroisoquinolin-1-yl)ethyl)urea oxalate] | - | 46.4 | 48.5 |  |  |  |
| COc1ccc2c(c1)C(CCNC(=O)Nc1cc(Cl)c(Cl)c(Cl)c1)=NCC2.O=C(O)C(=O)O [6b-5, 1-(2-(7-Methoxy-3,4-dihydroisoquinolin-1-yl)ethyl)-3-(3,4,5-trichlorophenyl)urea oxalate] | - | 40.1 | 40.7 |  |  |  |
| COc1ccc2c(c1)C(CCNC(=O)Nc1ccc(C(F)(F)F)cc1)=NCC2.O=C(O)C(=O)O [6b-3, 1-(2-(7-Methoxy-3,4-dihydroisoquinolin-1-yl)ethyl)-3-(4-(trifluoromethyl)phenyl)urea oxalate] | 10.7% | 23.2 | 35.8 |  |  | above 10% |
| COc1ccc2c(c1)C(CCNC(=O)Nc1ccc(Cl)c(Cl)c1)=NCC2.O=C(O)C(=O)O [6b-18, 1-(3,4-Dichlorophenyl)-3-(2-(7-methoxy-3,4-dihydroisoquinolin-1-yl)ethyl)urea oxalate] | 12.8% | 56.1 | 57.5 |  |  | above 10% |
| COc1ccc2c(c1)C(CCNC(=O)Nc1ccc(CC#N)cc1)=NCC2.O=C(O)C(=O)O [6b-20, 1-(4-(Cyanomethyl)phenyl)-3-(2-(7-methoxy-3,4-dihydroisoquinolin-1-yl)ethyl)urea oxalate] | - | 47.8 | 52 |  |  |  |
| COc1ccc2c(c1)C(CCNC(=O)c1ccc(C)cc1)=NCC2.O=C(O)C(=O)O [6a-25, N-(2-(7-Methoxy-3,4-dihydroisoquinolin-1-yl)ethyl)-4-methylbenzamide oxalate] | - | 65.7 | 50.8 |  |  |  |
| COc1ccc2c(c1)C(CCNC(=O)Nc1ccc(Br)cc1)=NCC2 [6b-21, 1-(4-Bromophenyl)-3-(2-(7-methoxy-3,4-dihydroisoquinolin-1-yl)ethyl)ureaoxalate] | - | 41.2 | 38.3 |  |  |  |
| COc1ccc2c(c1)C(CCNC(=O)c1cccnc1Cl)=NCC2.O=C(O)C(=O)O [6a-21, 2-Chloro-N-(2-(7-methoxy-3,4-dihydroisoquinolin-1-yl)ethyl)nicotinamide oxalate] | 15.2% | 49.8 | 58.8 |  |  | above 10% |
| COc1ccc2c(c1)C(CCNC(=O)Nc1cccc([N+](=O)[O-])c1)=NCC2.O=C(O)C(=O)O [6b-15, 1-(2-(7-Methoxy-3,4-dihydroisoquinolin-1-yl)ethyl)-3-(3-nitrophenyl)urea oxalate] | - | 47.5 | 48.9 |  |  |  |
| COc1ccc2c(c1)C(CCNC(=O)Nc1ccccc1C(F)(F)F)=NCC2.O=C(O)C(=O)O [6b-4, 1-(2-(7-Methoxy-3,4-dihydroisoquinolin-1-yl)ethyl)-3-(2-(trifluoromethyl)phenyl)urea oxalate] | 11.9% | 29.2 | 57.7 |  |  | above 10% |
| COc1ccc2c(c1)C(CCNC(=O)Nc1ccc(Cl)c(C(F)(F)F)c1)=NCC2 [6b-9, 1-(4-Chloro-3-(trifluoromethyl)phenyl)-3-(2-(7-methoxy-3,4-dihydroisoquinolin-1-yl)ethyl)urea oxalate] |  | 31.6 | 25.7 |  |  |  |
| COc1ccc2c(c1)C(CCNC(=O)NC(C)C)=NCC2 [6b-10, 1-Isopropyl-3-(2-(7-methoxy-3,4-dihydroisoquinolin-1-yl)ethyl)urea oxalate] |  | 34.7 | 31.9 |  |  |  |
